# From patent US20260049088A1, “TRICYCLIC HETEROCYCLIC DERIVATIVES, COMPOSITIONS AND USES THEREOF” (Danatlas Pharmaceuticals Co., Ltd., priority 2023, published 2026)
# Target: T1, hPARG (Homo sapiens, UniProt Q86W56)
# T1 construct: made in house; host or cells: E. coli
# Assay: PARG enzymatic activity assay (HTRF)
# Assay type: biochemical
# Details: C-terminal His6-tag hPARG 65 pM, biotinylated-NAD ribosylated PARP1 substrate 8 nM
# Method: HTRF assay was used to measure the ability of compounds to inhibit the activity of […] in vitro. C-terminal His6—tag PARG expressed in E. coli was purified and stored at −80° C. in aliquots. Assay measurements were performed with 1×buffer comprising 50 mM Tris pH 7.4, 0.1 mg/mL BSA, 3 mM EDTA, 0.4 mM EGTA, 1 mM DTT, 50 mM KCl and 0.01% Tween 20. Compounds dissolved in DMSO were plated into a 384-well assay plate (PerkinElmer, Catalog #: 6008280) in duplicate using a dispenser (Labcyte, Echo 665), and tested on a 10-point 4-fold serial dilution. Add 5 μL Enzyme mix [hPARG (C-terminal His6—tag, 4.2 μM), 65 pM final] to the test wells. The plates were covered and left to incubate for 60 minutes at RT before the addition of 5 μL substrate mix [biotinylated-NAD ribosylated PARP1 (6.1 μM), 8 nM final] to initiate reaction. After incubating 10 minutes at RT, add 2.5 μL Streptavidin-Eu cryptate (Cisbio, Catalog #: 610SAKLA) and 2.5 μL Mab anti 6HIS-XL665 (Cisbio, Catalog #: 61HISXLA) to the plate, and incubate for 60 minutes at RT. Read on a multimode plate reader (PerkinElmer, Envision 2015) in time-resolved fluorescence (TRF) mode, with excitation at 337 nm and emission at both 620 nm and 665 nm. Average HTRF signal of high control (Wells with 1% DMSO) was calculated and as Vehicle Control (VC). Average HTRF signal of low control (no Enzyme) was calculated and as Positive control (PC).
# IC50 values were determined by fitting the data to the standard 4 parameters with Hill Slope using GraphPad Prism software.
# T1 sequence (Q86W56 whole entry): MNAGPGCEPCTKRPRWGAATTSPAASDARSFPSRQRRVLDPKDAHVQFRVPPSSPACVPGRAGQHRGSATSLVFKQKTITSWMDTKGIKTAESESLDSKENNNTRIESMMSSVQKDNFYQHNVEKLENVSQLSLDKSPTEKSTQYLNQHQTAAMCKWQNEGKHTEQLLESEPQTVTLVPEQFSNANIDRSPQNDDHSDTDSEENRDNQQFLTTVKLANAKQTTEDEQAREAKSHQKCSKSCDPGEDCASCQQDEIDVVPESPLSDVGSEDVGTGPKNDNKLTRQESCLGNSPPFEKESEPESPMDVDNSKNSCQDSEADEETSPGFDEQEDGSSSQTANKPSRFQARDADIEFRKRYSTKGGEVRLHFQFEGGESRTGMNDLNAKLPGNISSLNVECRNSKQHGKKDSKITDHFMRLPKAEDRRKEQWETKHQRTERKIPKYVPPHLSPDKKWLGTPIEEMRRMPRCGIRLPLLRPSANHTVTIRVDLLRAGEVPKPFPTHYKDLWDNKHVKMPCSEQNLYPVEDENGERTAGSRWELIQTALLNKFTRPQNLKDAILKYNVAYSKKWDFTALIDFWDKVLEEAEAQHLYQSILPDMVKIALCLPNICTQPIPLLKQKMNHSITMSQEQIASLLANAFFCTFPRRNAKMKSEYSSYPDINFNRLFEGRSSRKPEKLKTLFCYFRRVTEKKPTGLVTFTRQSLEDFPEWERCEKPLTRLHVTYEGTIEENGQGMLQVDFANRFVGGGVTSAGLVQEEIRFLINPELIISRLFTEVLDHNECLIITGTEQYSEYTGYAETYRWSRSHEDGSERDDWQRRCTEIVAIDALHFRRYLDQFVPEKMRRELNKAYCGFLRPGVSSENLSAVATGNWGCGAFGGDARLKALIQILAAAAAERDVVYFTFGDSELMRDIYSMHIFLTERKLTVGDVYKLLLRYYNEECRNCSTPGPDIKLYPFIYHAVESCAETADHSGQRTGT
structure (smiles),measurement,value
"CCSc1ncnc2c1c1ccc(S(=O)(=O)NC3(C#N)CC3)cc1n2-c1nnc(C(F)F)s1 [Example 26, N-(1-Cyanocyclopropyl)-9-(5-(difluoromethyl)-1,3,4-thiadiazol-2-yl)-4-(ethylthio)-9H-pyrimido[4,5-b]indole-7-sulfonamide]",IC50,> 1 µM
"N#CC1(NS(=O)(=O)c2ccc3c4c(SCCO)ncnc4n(-c4nnc(C(F)F)s4)c3c2)CC1 [Example 27, N-(1-Cyanocyclopropyl)-9-(5-(difluoromethyl)-1,3,4-thiadiazol-2-yl)-4-((2-hydroxyethyl)thio)-9H-pyrimido[4,5-b]indole-7-sulfonamide]",IC50,≤ 0.1 µM
"CCN(CC)C1CCN(c2ncnc3c2c2ccc(S(=O)(=O)NC4(C#N)CC4)cc2n3-c2nnc(C(F)F)s2)CC1 [Example 28, N-(1-Cyanocyclopropyl)-4-(4-(diethylamino)piperidin-1-yl)-9-(5-(difluoromethyl)-1,3,4-thiadiazol-2-yl)-9H-pyrimido[4,5-b]indole-7-sulfonamide]",IC50,≤ 0.1 µM
"CN1CC2CN(c3ncnc4c3c3ccc(S(=O)(=O)NC5(C#N)CC5)cc3n4-c3nnc(C(F)F)s3)CC2C1 (centres unmarked) [Example 29, N-(1-Cyanocyclopropyl)-9-(5-(difluoromethyl)-1,3,4-thiadiazol-2-yl)-4-(5-methylhexahydropyrrolo[3,4-c]pyrrol-2(1H)-yl)-9H-pyrimido[4,5-b]indole-7-sulfonamide]",IC50,≤ 0.1 µM
"CN1C[C@H]2C[C@@H]1CN2c1ncnc2c1c1ccc(S(=O)(=O)NC3(C#N)CC3)cc1n2-c1nnc(C(F)F)s1 [Example 30, N-(1-Cyanocyclopropyl)-9-(5-(difluoromethyl)-1,3,4-thiadiazol-2-yl)-4-((1R,4R)-5-methyl-2,5-diazabicyclo[2.2.1]heptan-2-yl)-9H-pyrimido[4,5-b]indole-7-sulfonamide]",IC50,≤ 0.1 µM
"CN1C[C@@H]2C[C@H]1CN2c1ncnc2c1c1ccc(S(=O)(=O)NC3(C#N)CC3)cc1n2-c1nnc(C(F)F)s1 [Example 31, N-(1-Cyanocyclopropyl)-9-(5-(difluoromethyl)-1,3,4-thiadiazol-2-yl)-4-((1S,4S)-5-methyl-2,5-diazabicyclo[2.2.1]heptan-2-yl)-9H-pyrimido[4,5-b]indole-7-sulfonamide]",IC50,≤ 0.1 µM
"CCN(CC)[C@H]1CCN(c2ncnc3c2c2ccc(S(=O)(=O)NC4(C#N)CC4)cc2n3-c2nnc(C(F)F)s2)C[C@@H]1F [Example 32, N-(1-Cyanocyclopropyl)-4-((3S,4S)-4-(diethylamino)-3-fluoropiperidin-1-yl)-9-(5-(difluoromethyl)-1,3,4-thiadiazol-2-yl)-9H-pyrimido[4,5-b]indole-7-sulfonamide]",IC50,≤ 0.1 µM
"CCN(CC)[C@@H]1CCN(c2ncnc3c2c2ccc(S(=O)(=O)NC4(C#N)CC4)cc2n3-c2nnc(C(F)F)s2)C[C@@H]1F [Example 33, N-(1-Cyanocyclopropyl)-4-((3S,4R)-4-(diethylamino)-3-fluoropiperidin-1-yl)-9-(5-(difluoromethyl)-1,3,4-thiadiazol-2-yl)-9H-pyrimido[4,5-b]indole-7-sulfonamide]",IC50,≤ 0.1 µM
"CCN(CC)[C@H]1CCN(c2ncnc3c2c2ccc(S(=O)(=O)NC4(C#N)CC4)cc2n3-c2nnc(C(F)F)s2)C[C@H]1F [Example 34, N-(1-Cyanocyclopropyl)-4-((3R,4S)-4-(diethylamino)-3-fluoropiperidin-1-yl)-9-(5-(difluoromethyl)-1,3,4-thiadiazol-2-yl)-9H-pyrimido[4,5-b]indole-7-sulfonamide]",IC50,≤ 0.1 µM
"CCN(CC)[C@@H]1CCN(c2ncnc3c2c2ccc(S(=O)(=O)NC4(C#N)CC4)cc2n3-c2nnc(C(F)F)s2)C[C@H]1F [Example 35, N-(1-Cyanocyclopropyl)-4-((3R,4R)-4-(diethylamino)-3-fluoropiperidin-1-yl)-9-(5-(difluoromethyl)-1,3,4-thiadiazol-2-yl)-9H-pyrimido[4,5-b]indole-7-sulfonamide]",IC50,≤ 0.1 µM
"N#CC1(NS(=O)(=O)c2ccc3c4c(N5CCC(N6CCC(F)(F)CC6)[C@@H](F)C5)ncnc4n(-c4nnc(C(F)F)s4)c3c2)CC1 (stereo partly drawn) [Example 36, N-(1-Cyanocyclopropyl)-9-(5-(difluoromethyl)-1,3,4-thiadiazol-2-yl)-4-((3′S)-3′,4,4-trifluoro-[1,4′-bipiperidin]-1′-yl)-9H-pyrimido[4,5-b]indole-7-sulfonamide]",IC50,≤ 0.1 µM
"CN(C)CC1CN(c2ncnc3c2c2ccc(S(=O)(=O)NC4(C#N)CC4)cc2n3-c2nnc(C(F)F)s2)CCO1 (centres unmarked) [Example 37, N-(1-Cyanocyclopropyl)-9-(5-(difluoromethyl)-1,3,4-thiadiazol-2-yl)-4-(2-((dimethylamino)methyl)morpholino)-9H-pyrimido[4,5-b]indole-7-sulfonamide]",IC50,≤ 0.1 µM
"CCN1CCC2CN(c3ncnc4c3c3ccc(S(=O)(=O)NC5(C#N)CC5)cc3n4-c3nnc(C(F)F)s3)CCC21 (centres unmarked) [Example 38, N-(1-Cyanocyclopropyl)-9-(5-(difluoromethyl)-1,3,4-thiadiazol-2-yl)-4-(1-ethyloctahydro-5H-pyrrolo[3,2-c]pyridin-5-yl)-9H-pyrimido[4,5-b]indole-7-sulfonamide]",IC50,≤ 0.1 µM
"CCN(CC)C1C[C@H]2C[C@@H]1CN2c1ncnc2c1c1ccc(S(=O)(=O)NC3(C#N)CC3)cc1n2-c1nnc(C(F)F)s1 (stereo partly drawn) [Example 39, N-(1-Cyanocyclopropyl)-4-((1R,4R)-5-(diethylamino)-2-azabicyclo[2.2.1]heptan-2-yl)-9-(5-(difluoromethyl)-1,3,4-thiadiazol-2-yl)-9H-pyrimido[4,5-b]indole-7-sulfonamide]",IC50,≤ 0.1 µM
"N#CC1(NS(=O)(=O)c2ccc3c4c(N5C[C@H]6C[C@@H]5CC6(F)F)ncnc4n(-c4nnc(C(F)F)s4)c3c2)CC1 [Example 40, N-(1-Cyanocyclopropyl)-4-((1R,4R)-5,5-difluoro-2-azabicyclo [2.2.1]heptan-2-yl)-9-(5-(difluoromethyl)-1,3,4-thiadiazol-2-yl)-9H-pyrimido[4,5-b]indole-7-sulfonamide]",IC50,0.1 to 1 µM
"C[C@@H]1CN(c2ncnc3c2c2ccc(S(=O)(=O)NC4(C#N)CC4)cc2n3-c2nnc(C(F)F)s2)C[C@H](C)N1C [Example 41, N-(1-Cyanocyclopropyl)-9-(5-(difluoromethyl)-1,3,4-thiadiazol-2-yl)-4-((3R,5S)-3,4,5-trimethylpiperazin-1-yl)-9H-pyrimido[4,5-b]indole-7-sulfonamide]",IC50,≤ 0.1 µM
"N#CC1(NS(=O)(=O)c2ccc3c4c(N5CCO[C@@H](CO)C5)ncnc4n(-c4nnc(C(F)F)s4)c3c2)CC1 [Example 42, (R)-N-(1-Cyanocyclopropyl)-9-(5-(difluoromethyl)-1,3,4-thiadiazol-2-yl)-4-(2-(hydroxymethyl)morpholino)-9H-pyrimido[4,5-b]indole-7-sulfonamide]",IC50,≤ 0.1 µM
"CN1CCN(c2ncnc3c2c2ccc(S(=O)(=O)NC4(C#N)CC4)cc2n3-c2nnc(C(F)F)s2)C[C@@H]1CO [Example 43, (R)-N-(1-Cyanocyclopropyl)-9-(5-(difluoromethyl)-1,3,4-thiadiazol-2-yl)-4-(3-(hydroxymethyl)-4-methylpiperazin-1-yl)-9H-pyrimido[4,5-b]indole-7-sulfonamide]",IC50,≤ 0.1 µM
"N#CC1(NS(=O)(=O)c2ccc3c4c(N5CCn6ccnc6C5)ncnc4n(-c4nnc(C(F)F)s4)c3c2)CC1 [Example 44, N-(1-Cyanocyclopropyl)-9-(5-(difluoromethyl)-1,3,4-thiadiazol-2-yl)-4-(5,6-dihydroimidazo[1,2-a]pyrazin-7(8H)-yl)-9H-pyrimido[4,5-b]indole-7-sulfonamide]",IC50,≤ 0.1 µM
"N#CC1(NS(=O)(=O)c2ccc3c4c(N5CCn6cncc6C5)ncnc4n(-c4nnc(C(F)F)s4)c3c2)CC1 [Example 45, N-(1-Cyanocyclopropyl)-9-(5-(difluoromethyl)-1,3,4-thiadiazol-2-yl)-4-(5,6-dihydroimidazo[1,5-a]pyrazin-7(8H)-yl)-9H-pyrimido[4,5-b]indole-7-sulfonamide]",IC50,≤ 0.1 µM
"N#CC1(NS(=O)(=O)c2ccc3c4c(N5CCn6cnnc6C5)ncnc4n(-c4nnc(C(F)F)s4)c3c2)CC1 [Example 46, N-(1-Cyanocyclopropyl)-9-(5-(difluoromethyl)-1,3,4-thiadiazol-2-yl)-4-(5,6-dihydro-[1,2,4]triazolo[4,3-a]pyrazin-7(8H)-yl)-9H-pyrimido[4,5-b]indole-7-sulfonamide]",IC50,≤ 0.1 µM
"Cc1nnc2n1CCN(c1ncnc3c1c1ccc(S(=O)(=O)NC4(C#N)CC4)cc1n3-c1nnc(C(F)F)s1)C2 [Example 47, N-(1-Cyanocyclopropyl)-9-(5-(difluoromethyl)-1,3,4-thiadiazol-2-yl)-4-(3-methyl-5,6-dihydro-[1,2,4]triazolo[4,3-a]pyrazin-7(8H)-yl)-9H-pyrimido[4,5-b]indole-7-sulfonamide]",IC50,≤ 0.1 µM
"CN1CCN(c2ncnc3c2c2ccc(S(=O)(=O)NC4(C#N)CC4)cc2n3-c2nnc(C(F)F)s2)CC12CC2 [Example 48, N-(1-Cyanocyclopropyl)-9-(5-(difluoromethyl)-1,3,4-thiadiazol-2-yl)-4-(4-methyl-4,7-diazaspiro[2.5]octan-7-yl)-9H-pyrimido[4,5-b]indole-7-sulfonamide]",IC50,≤ 0.1 µM
